This assay concerns the target T1, CRF1R receptor (Homo sapiens, UniProt P34998).
T1 construct: host or cells: CHO-K1 clone 2
T1 sequence (P34998 24-415): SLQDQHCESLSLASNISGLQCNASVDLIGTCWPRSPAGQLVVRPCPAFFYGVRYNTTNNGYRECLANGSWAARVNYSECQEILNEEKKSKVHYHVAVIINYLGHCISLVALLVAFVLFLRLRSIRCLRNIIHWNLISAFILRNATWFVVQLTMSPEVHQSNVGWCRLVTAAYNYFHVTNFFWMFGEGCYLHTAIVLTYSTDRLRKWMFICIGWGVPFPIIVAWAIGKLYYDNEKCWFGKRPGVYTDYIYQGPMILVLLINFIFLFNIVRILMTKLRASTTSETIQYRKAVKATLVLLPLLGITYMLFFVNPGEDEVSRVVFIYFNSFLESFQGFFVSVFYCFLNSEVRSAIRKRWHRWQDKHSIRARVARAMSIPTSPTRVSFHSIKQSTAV
As to the kind of experiment: cAMP activity at anti-target CRF1R, CHO-K1 cell line clone 2 (Example 19.10). Conditions: 100% = Sauvagine at 100 nM; CRF1R CHO-K1 clone 2. It counts as cell-based. The method, then: The CRF1R-overexpression CHO-K1 cell line clone 2 was purchased from PerkinElmer.
Cells were grown in a 10 cm dish at 37° C./5% CO2 in medium (F12 (Hams)/10% FBS/400 μg/ml G418) to near confluence. At that stage, cells were harvested, resuspended to 10 million/mL in culture medium without G418 and with 10% DMSO. 1 mL vial aliquots were slowly frozen to -80° C. in isopropanol and then transferred in liquid nitrogen for storage. These vials were used to run the experiment following the procedure reported 10 in the previous paragraph, except for the compound used in the control well to define the 100% activation (Sauvagine at 100 nM)

SMILES strings stand for the structures. Starred links: 1 amine or outer side, 2 acyl side, 3 side chain; linkers in the order of their positions; H or OH if unused. Non-standard residues stand in square brackets, D forms with d. Residues, ends and D or L forms follow the SMILES beside them. Groups on a side chain read outwards from the residue. *: point of attachment. C16 diacid = O=C(O)CCCCCCCCCCCCCCC(=O)*; γGlu = O=C(O)[C@H](CCC(=O)[*:2])N[*:1]; Palmitoyl = CCCCCCCCCCCCCCCC(=O)*

In general, Emax refers to the size of the effect at its maximum, as opposed to the concentration needed. `CC[C@H](C)[C@H](N)C(=O)N[C@H](C(=O)N[C@@H](CC(C)C)C(=O)N[C@@H](CO)C(=O)N[C@@H](CC(C)C)C(=O)N[C@@H](CC(=O)O)C(=O)N[C@@H](C(=O)N1CCC[C@H]1C(=O)N[C@H](C(=O)N[C@@H](CCCCN)C(=O)N[C@@H](CC(C)C)C(=O)N[C@@H](CCCCNC(=O)CC[C@H](NC(=O)CCCCCCCCCCCCCCC(=O)O)C(=O)O)C(=O)N[C@@H](CCC(N)=O)C(=O)N[C@@H](CCCCN)C(=O)N[C@@H](CC(C)C)C(=O)N[C@@H](CC(C)C)C(=O)N[C@@H](CCCCN)C(=O)N[C@@H](CCC(N)=O)C(=O)N[C@@H](CCC(=O)O)C(=O)N[C@@H](CCCNC(=N)N)C(=O)N[C@@H](CCC(N)=O)C(=O)N[C@@H](CCCNC(=N)N)C(=O)N[C@@H](CCCCN)C(=O)N[C@@H](CCC(=O)O)C(=O)N[C@@H](CCCNC(=N)N)C(=O)N[C@@H](CCC(=O)O)C(=O)N[C@@H](CCC(N)=O)C(=O)N[C@@H](C)C(=O)N[C@@H](CCC(=O)O)C(=O)N[C@@H](CCCCN)C(=O)N[C@@H](CC(N)=O)C(=O)N[C@H](C(=O)N[C@@H](CCCNC(=N)N)C(=O)N[C@H](C(=O)N[C@@H](CC(C)C)C(=O)N[C@@H](CCC(=O)O)C(=O)N[C@@H](CCCNC(=N)N)C(=O)N[C@H](C(N)=O)C(C)C)[C@@H](C)CC)C(C)C)[C@@H](C)O)C(C)C)C(C)C` [SEQ ID NO: 222] (H-IVLSLD[dV]PTKLK([γGlu-C16 diacid])QKLLKQERQRKEREQAEKNVRILERV-NH2; N-terminus assumed): the Emax came out at 6.2%.
With `CCCCCCCCCCCCCCCC(=O)N[C@@H](CCC(=O)NCCCC[C@H](NC(=O)[C@H](CC(C)C)NC(=O)[C@H](CCCCN)NC(=O)[C@@H](NC(=O)[C@@H]1CCCN1C(=O)[C@H](NC(=O)[C@H](CC(=O)O)NC(=O)[C@H](CC(C)C)NC(=O)[C@H](CO)NC(=O)[C@H](CC(C)C)NC(=O)[C@@H](NC(=O)[C@@H](N)[C@@H](C)CC)C(C)C)C(C)C)[C@@H](C)O)C(=O)N[C@@H](CCC(N)=O)C(=O)N[C@@H](CCCCN)C(=O)N[C@@H](CC(C)C)C(=O)N[C@@H](CC(C)C)C(=O)N[C@@H](CCCCN)C(=O)N[C@@H](CCC(N)=O)C(=O)N[C@@H](CCC(=O)O)C(=O)N[C@@H](CCCNC(=N)N)C(=O)N[C@@H](CCC(N)=O)C(=O)N[C@@H](CCCNC(=N)N)C(=O)N[C@@H](CCCCN)C(=O)N[C@@H](CCC(=O)O)C(=O)N[C@@H](CCCNC(=N)N)C(=O)N[C@@H](CCC(=O)O)C(=O)N[C@@H](CCC(N)=O)C(=O)N[C@@H](C)C(=O)N[C@@H](CCC(=O)O)C(=O)N[C@@H](CCCCN)C(=O)N[C@@H](CC(N)=O)C(=O)N[C@@H](CCCCN)C(=O)N[C@@H](CCCNC(=N)N)C(=O)N[C@H](C(=O)N[C@@H](CC(C)C)C(=O)N[C@@H](CCC(=O)O)C(=O)N[C@@H](CCCNC(=N)N)C(=O)N[C@H](C(N)=O)C(C)C)[C@@H](C)CC)C(=O)O` [SEQ ID NO: 223] (H-IVLSLD[dV]PTKLK([γGlu-Palmitoyl])QKLLKQERQRKEREQAEKNKRILERV-NH2; N-terminus assumed), the Emax worked out at 57.3%.

Source of the values: patent publication US12679878B2, “CRF2 receptor agonists and their use in therapy” (SANOFI, priority 2020, dated 2026).
